Measurements as given in publication PMC3883446 (Bioorganic & medicinal chemistry letters, 2012).
Read-outs that look alike come from different tables or passages of the source.

What was measured:
hM1 = target: T1, hM1 (Homo sapiens, UniProt P11229); test: hM1 antagonist potency, calcium mobilization assay; format: cell-based; details: for % ACh activity remaining: at the highest concentration tested (30 μM)
T1 sequence (P11229 1-460): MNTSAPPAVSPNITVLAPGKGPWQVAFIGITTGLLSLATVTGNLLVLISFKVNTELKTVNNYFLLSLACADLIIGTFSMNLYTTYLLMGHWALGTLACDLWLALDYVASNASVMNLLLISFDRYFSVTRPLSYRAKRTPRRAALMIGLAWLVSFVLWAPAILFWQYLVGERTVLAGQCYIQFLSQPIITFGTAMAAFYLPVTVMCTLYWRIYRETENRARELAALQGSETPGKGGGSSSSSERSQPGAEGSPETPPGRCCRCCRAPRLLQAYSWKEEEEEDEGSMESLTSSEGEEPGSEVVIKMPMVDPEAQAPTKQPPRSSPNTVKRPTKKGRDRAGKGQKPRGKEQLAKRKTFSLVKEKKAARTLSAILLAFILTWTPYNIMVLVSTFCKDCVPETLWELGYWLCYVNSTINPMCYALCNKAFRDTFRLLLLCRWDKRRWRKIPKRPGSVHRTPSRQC

M1 = target: T2, M1 (Homo sapiens, UniProt P11229); format: cell-based; details: antagonism of ACh at M1; mean ± S.E.M. of three experiments in triplicate
T2 sequence (P11229 1-460): T1 sequence (P11229 1-460)

M1 mAChR = test: equilibrium radioligand binding, [3H]NMS competition; details: Figure 4A
[1] = in vitro hepatic microsome intrinsic clearance; format: in vitro ADME, rat
rat (r) M1-5 receptors = test: calcium mobilization assay, rat M1-5 selectivity; format: cell-based; details: CRCs in the presence of an EC80 concentration of ACh; Figure 5
[2] = tested on: pilocarpine-induced seizures; details: rodents; cited from earlier work
[3] = tested on: contextual fear conditioning; details: at doses that reduced seizures; cited from earlier work

## O=C(C1CN(S(=O)(=O)c2cccc3nsnc23)C1)N1CCN(c2ccncc2)CC1 [2d]
hM1; hM1, relative to ML012
  fold less active / less potent than ML012: 3 fold

## Cc1ccnc(S(=O)(=O)N2CC(C(=O)N3CCN(c4ccncc4)CC3)C2)c1 [7e]
hM1; hM1
  % ACh activity remaining: 38%

## O=C(C1CN(S(=O)(=O)c2ccc(Cl)cn2)C1)N1CCN(c2ccncc2)CC1 [7f]
hM1; hM1
  % ACh activity remaining: 41%

## O=C(C1CN(S(=O)(=O)c2ccc3c(c2)OCO3)C1)N1CCN(c2ccncc2)CC1 [7o]
M1
  slope of Schild regression: 0.96 ± 0.02
M1 mAChR
  displacement of the orthosteric ligand [3H]NMS: complete displacement

## COc1ccc(S(=O)(=O)N2CC(C(=O)N3CCN(c4ccncc4)CC3)C2)cn1 [7t]
hM1; hM1
  % ACh activity remaining: 20%

## O=C(C1CN(S(=O)(=O)c2ccc(C(F)(F)F)nc2)C1)N1CCN(c2ccncc2)CC1 [7u]
hM1; hM1
  % ACh activity remaining: 40%

## O=C(C1CN(S(=O)(=O)c2ccc3c(c2)CCO3)C1)N1CCN(c2ccncc2)CC1 [7v]
hM1; hM1, relative to ML012
  fold increase in potency: 8 fold

## O=C(C1CN(S(=O)(=O)c2cccc3cnccc23)C1)N1CC2CN(c3ccncc3)CC2C1 (stereo not drawn) [12a]
M1
  slope of Schild regression: 0.94 ± 0.01
M1 mAChR
  displacement of the orthosteric ligand [3H]NMS: complete displacement
[1]; predicted from microsome intrinsic clearance
  predicted hepatic clearance (CLHEP): 42.3 mL/min/kg
[1]; rat, hepatic microsomes
  CLint scaled: 107 mL/min/kg
Rat (r) M1-5 receptors
  selectivity at rat M1 compared to M2-5: selectively antagonize M1

## O=C(C1CN(S(=O)(=O)c2cccc3nonc23)C1)N1CCN(c2ccccn2)CC1 [(1-(Benzo[c][1,2,5]oxadiazol-4-ylsulfonyl)azetidin-3-yl)(4-(pyridin-2-yl)piperazin-1-yl)methanone]
hM1
  IC50: 5 µM

## Brc1ccc(N2CCNCC2)nc1 [(5-bromopyridin-2-yl)piperazine]
hM1; read-out: hM1 IC50
  IC50: 0.28 µM

## O=C(CCNS(=O)(=O)c1cccc2nsnc12)N1CCN(c2ccncc2)CC1 [ML012]
[2]
  effect on pilocarpine-induced seizures: reduced pilocarpine-induced seizures
[3]
  impact on contextual fear conditioning: no negative impact on contextual fear conditioning

## CN1[C@@H]2CC[C@H]1C[C@@H](OC(=O)C(CO)c1ccccc1)C2 (stereo partly drawn) [atropine, reference compound]
M1 mAChR
  displacement of the orthosteric ligand [3H]NMS: compete with [^3H]NMS binding at M1
